Laboratory results from patent US9121846B2, “Daikenchuto bioassay method and quality management method using same” (TSUMURA & Co., priority 2010, dated 2015).

System: Rat pancreatic cancer cell line RIN-14B
Assay: Serotonin (5-HT) release test in cultured serotonin-producing cells, 5-HT measured by EIA
Type: cell-based
Settings: positive control, final concentration 100 μmol/L, 1 hour culture
Experimental: The crude drug mixture of the proportions presented in Table 1 was extracted by heating at 100° C. for 1 hour with purified water used in 10 times the amount of the mixture weight, and the extract was processed into a powder to obtain a Koi-free Daikenchuto extract powder. The Koi-free Daikenchuto extract powder was used to prepare a 100 mg/mL DMSO suspension, and the suspension was mixed with an 88.8 mg/mL maltose aqueous solution at a 1:9 ratio to prepare a […] Daikenchuto solution. The solution was diluted with 0.1% BSA-Hanks buffer* to make the concentration 9 mg/mL and subjected to 15-min sonication to prepare a Daikenchuto test sample.
Separately, a DMSO solution of 100 mmol/L AITC was prepared as a positive control sample by adding allyl isothiocyanate (AITC; Wako Pure Chemical Industries, Ltd.) to DMSO. […]
The plate was washed three times with a washing buffer attached to the kit (300 μL/well) to remove the free components. […] After confirming the development of color, the reaction was stopped by adding a reaction stopper ([…] and the absorbance at 405 nm was measured. The results are presented in FIG. 1.

## C=CCN=C=S [AITC, allyl isothiocyanate]
  5-HT concentration compared with the control: evidently higher
